This is an account of results in patent US8217035B2, “Pyrimidine derivatives used as PI-3-kinase inhibitors” (Novartis AG, priority 2006, dated 2012).

The subject of test [1] is pSer473 Akt in A2780 cells. The experiment in a line: pSer473 Akt assay to monitor PI3K pathway in A2780 cells (Biological Method 2, MSD). Conditions: Homo sapiens, inhibition of Akt phosphorylation. The class given is cell-based. How it is done:
In this method, an assay for measuring the PI3K-mediated pSer473-Akt status after treatment with representative inhibitor compounds of the invention is described.
A2780 cells were cultured in DMEM supplemented with 10% FBS. L-glutamine, sodium pyruvate, and antibiotics. Cells were plated in the same medium at a density of 15,000 cells per well into 96 well tissue culture plates, with outside wells vacant, and allowed to adhere overnight.
Test compounds supplied in DMSO were diluted further into DMSO at 500 times the desired final concentrations before dilution into culture media to 2 times the final concentrations. Equal volumes of 2× compounds were added to the cells in 96 well plates and incubated at 37° C. for one hour. The media and compounds were then removed, the plates chilled and cells lysed in a lysis buffer (150 mM NaCl, 20 mM Tris pH 7.5, 1 mM EDTA, 1 mM EGTA, 1% Triton X-100) supplemented with phosphatase and protease inhibitors. After thorough mixing, lysates were transferred to both pSer473Akt and total Akt assay plates from Meso Scale Discovery (MSD), and incubated overnight with shaking at 4° C.
The assays were read on a SECTOR Imager 6000 instrument (Meso Scale Discovery). Ratios of the signal from pSer473Akt and total Akt assays were used to correct for any variability and the percent inhibition of pSer473Akt from the total signal seen in cells treated with compound versus DMSO alone was calculated and used to determine EC50 values for each compound.

Test [2] has as its system A2780 ovarian cancer cells. The experiment in a line: Cellular proliferation in A2780 cells, Cell Titer Glo (Biological Method 4). The class given is cell-based. Conditions: Homo sapiens; ovarian cancer cell line A2780. In a few lines:
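Viability after 72 h compound exposure (37 °C, 5% CO2) was read by Cell Titer Glo and an EC50 derived, each condition in duplicate. A2780 ovarian cells had been plated at 1,000 per well in DMEM/10% FBS at least 2 h beforehand.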

Another test has as its target PI3 kinase alpha (Homo sapiens, UniProt P42336). The experiment in a line: PI3K ATP depletion assay (Biological Method 1, Assay 3; KinaseGlo luminescence). Format: biochemical. Conditions: ATP depletion assay, read-out: PI3 Kinase Alpha, IC50. In a few lines:
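Compound in DMSO was mixed with 10 nM PI3 kinase and 5 μg/mL phosphatidylinositol, and the reaction was started with 2 μM ATP. It ran to about 50% ATP depletion and was stopped with KinaseGlo.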

SMILES strings stand for the structures. Like-named read-outs stand apart in the source and are kept apart here.

PI3 kinase alpha, sequence (P42336 whole entry): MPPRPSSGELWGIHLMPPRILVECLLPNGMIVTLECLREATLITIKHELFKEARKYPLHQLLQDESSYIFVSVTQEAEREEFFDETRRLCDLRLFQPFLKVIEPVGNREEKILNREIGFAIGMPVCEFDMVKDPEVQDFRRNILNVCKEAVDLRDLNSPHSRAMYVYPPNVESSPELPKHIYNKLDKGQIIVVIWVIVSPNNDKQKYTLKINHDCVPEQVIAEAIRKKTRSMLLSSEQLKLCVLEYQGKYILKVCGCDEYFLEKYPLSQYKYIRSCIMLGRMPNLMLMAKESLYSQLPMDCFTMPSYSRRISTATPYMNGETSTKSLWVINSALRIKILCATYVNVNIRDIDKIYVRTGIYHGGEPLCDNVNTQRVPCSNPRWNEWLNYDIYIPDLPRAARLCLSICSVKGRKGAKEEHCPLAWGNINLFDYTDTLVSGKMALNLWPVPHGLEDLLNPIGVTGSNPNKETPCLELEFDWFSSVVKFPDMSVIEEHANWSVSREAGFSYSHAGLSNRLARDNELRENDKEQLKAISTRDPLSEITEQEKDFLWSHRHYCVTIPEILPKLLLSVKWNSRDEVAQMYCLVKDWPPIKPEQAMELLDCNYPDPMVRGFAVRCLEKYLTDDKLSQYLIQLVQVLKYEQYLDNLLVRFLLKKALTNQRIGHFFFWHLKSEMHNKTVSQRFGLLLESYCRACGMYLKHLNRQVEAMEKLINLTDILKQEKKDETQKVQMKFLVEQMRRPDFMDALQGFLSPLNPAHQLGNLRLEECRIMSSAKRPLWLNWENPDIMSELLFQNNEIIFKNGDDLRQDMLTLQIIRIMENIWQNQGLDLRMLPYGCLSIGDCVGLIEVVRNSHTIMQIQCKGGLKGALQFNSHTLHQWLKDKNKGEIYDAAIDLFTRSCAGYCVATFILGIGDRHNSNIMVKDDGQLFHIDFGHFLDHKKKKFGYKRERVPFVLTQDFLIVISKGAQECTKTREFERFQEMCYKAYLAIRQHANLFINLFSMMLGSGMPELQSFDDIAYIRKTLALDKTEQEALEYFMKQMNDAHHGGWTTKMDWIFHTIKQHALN
PI3 kinase alpha, sequence (P27986 whole entry partner): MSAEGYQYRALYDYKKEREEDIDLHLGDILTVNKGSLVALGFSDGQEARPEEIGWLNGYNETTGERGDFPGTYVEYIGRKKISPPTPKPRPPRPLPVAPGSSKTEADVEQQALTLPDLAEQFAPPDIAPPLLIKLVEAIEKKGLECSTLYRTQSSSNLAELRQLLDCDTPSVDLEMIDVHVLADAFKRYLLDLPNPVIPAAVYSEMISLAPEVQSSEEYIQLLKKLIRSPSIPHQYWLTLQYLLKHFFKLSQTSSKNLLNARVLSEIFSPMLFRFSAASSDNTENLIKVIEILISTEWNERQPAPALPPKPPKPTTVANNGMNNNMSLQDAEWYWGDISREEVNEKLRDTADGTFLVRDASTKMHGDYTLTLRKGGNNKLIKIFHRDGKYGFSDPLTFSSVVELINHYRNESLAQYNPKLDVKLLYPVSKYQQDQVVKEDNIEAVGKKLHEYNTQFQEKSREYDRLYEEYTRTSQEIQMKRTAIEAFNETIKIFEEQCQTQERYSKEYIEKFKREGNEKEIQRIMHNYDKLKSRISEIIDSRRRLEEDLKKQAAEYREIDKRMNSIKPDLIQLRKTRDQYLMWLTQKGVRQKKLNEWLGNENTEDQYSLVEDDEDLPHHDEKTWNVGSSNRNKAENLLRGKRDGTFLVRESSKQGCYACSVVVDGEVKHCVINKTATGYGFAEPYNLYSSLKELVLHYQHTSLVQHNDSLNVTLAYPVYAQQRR

In the case of `Nc1ncc(-c2cc(Nc3cnc4ccccc4c3)nc(N3CCOCC3)n2)cn1` [Compound 1], the 50% effective concentration (EC50) in test [1] (A2780 cells) and in test [2] was < 1000 nM in each case.

Turning to `N#Cc1cc(N)ncc1-c1cc(Nc2cnc3ccccc3c2)nc(N2CCOCC2)n1` [Compound 5], the EC50 in test [1] (A2780 cells) was < 10000 nM; in test [2], < 1000 nM.

In the case of `CN1CCC(Oc2ccc(Nc3cc(-c4cnc(N)nc4)nc(N4CCOCC4)n3)cn2)CC1` [Compound 37], the EC50 in test [1] (A2780 cells) and in test [2] was < 1000 nM throughout.

In the case of `Nc1ncc(-c2cc(N3CCOCC3)nc(N3CCOCC3)n2)c(=O)[nH]1` [Compound 77], the concentration giving a half-maximal response (EC50) in test [1] (A2780 cells) and in test [2] was < 1000 nM throughout.

On to `Nc1ncc(-c2cc(N3CCOCC3)nc(N3CCOCC3)n2)c(C(F)(F)F)n1` [Compound 85], for which the EC50 in test [1] (A2780 cells) and in test [2] was < 1000 nM each time.

With `Cc1nc(N)ncc1-c1cc(Nc2cnc3ccccc3c2)nc(N2CCOCC2)n1` [Compound 96], the EC50 in test [1] (A2780 cells) and in test [2] was < 1000 nM throughout.

For `Nc1ncc(-c2cc(N3CCOCC3)nc(N3CCOCC3)n2)cn1` [Compound 100], the EC50 in test [1] (A2780 cells) and in test [2] was < 1000 nM throughout.

In the case of `Nc1ncc(-c2cc(Nc3ccc(Oc4ccccc4)nc3)nc(N3CCOCC3)n2)cn1` [Compound 107], the figures for the EC50 in test [1] (A2780 cells) and in test [2] were < 1000 nM and < 10000 nM, respectively.

With `CN(C)CCOc1ccc(Nc2cc(-c3ccc(N)nc3)nc(N3CCOCC3)n2)cn1` [Compound 198], the EC50 in test [1] (A2780, Biological Method 2) was < 1000 nM. Moreover, at PI3 kinase alpha (Biological Method 1), the IC50 is < 1000 nM.

For the molecule `CN1CCC(Nc2ccc(Nc3cc(-c4ccc(N)nc4)nc(N4CCOCC4)n3)cn2)CC1` [Compound 501], the EC50 in test [2] was < 10000 nM. Also, at PI3 kinase alpha, the IC50 is < 1000 nM.

On to `CN(C)c1ccc(-c2cc(-c3ccc(N)nc3)nc(N3CCOCC3)n2)cn1` [Compound 505], for which the concentration for a half-maximal effect (EC50) in test [2] is < 10000 nM. Moreover, the IC50 on PI3 kinase alpha is < 1000 nM.

`Nc1ccc(-c2cc(-c3cccnc3F)nc(N3CCOCC3)n2)cn1` [Compound 508]: in test [2], the EC50 was < 10000 nM. Besides, the IC50 on PI3 kinase alpha is < 1000 nM.

Consider `CC(C)N1CCN(c2ccc(Nc3cc(-c4ccc(N)nc4)nc(N4CCOCC4)n3)cn2)CC1` [Compound 509], for which the EC50 in test [2] is < 10000 nM. Further, the IC50 on PI3 kinase alpha was < 1000 nM.

`Nc1ncc(-c2cc(OCCCN3CCOCC3)nc(N3CCOCC3)n2)cn1` [Compound 511]: the EC50 in test [2] was < 10000 nM. In addition, the IC50 at PI3 kinase alpha was < 1000 nM.

As for `Nc1ccc(-c2cc(Oc3cccnc3)nc(N3CCOCC3)n2)cn1` [Compound 512], the 50% effective concentration (EC50) in test [2] is < 10000 nM. In addition, the IC50 on PI3 kinase alpha was < 1000 nM.

Regarding `CN1CCC(Oc2cc(-c3cnc(N)nc3)nc(N3CCOCC3)n2)CC1` [Compound 514], in test [2], the EC50 was < 10000 nM. For the same molecule, at PI3 kinase alpha, the IC50 is < 1000 nM.

In the case of `Nc1ncc(-c2cc(OC3CCOCC3)nc(N3CCOCC3)n2)cn1` [Compound 515], in test [2], the EC50 was < 1000 nM. Besides, the IC50 at PI3 kinase alpha is < 1000 nM.

For `Nc1ncc(-c2cc(-c3cccnc3)nc(N3CCOCC3)n2)cn1` [Compound 518], the EC50 in test [2] was < 1000 nM. Further, the half-maximal inhibitory concentration (IC50) on PI3 kinase alpha is < 1000 nM.

As for `Nc1ncc(-c2cc(N[C@@H]3CN4CCC3CC4)nc(N3CCOCC3)n2)cn1` [Compound 520], in test [2], the EC50 was < 10000 nM. For the same molecule, the IC50 at PI3 kinase alpha is < 1000 nM.

For `Nc1ncc(-c2cc(Nc3ccc4[nH]cnc4c3)nc(N3CCOCC3)n2)cn1` [Compound 521], the EC50 in test [2] is < 10000 nM. At PI3 kinase alpha, the IC50 was < 1000 nM.

Take `Nc1ncc(-c2cc(Nc3ccc4[nH]ncc4c3)nc(N3CCOCC3)n2)cn1` [Compound 522]: in test [2], the EC50 is < 10000 nM. Also, the IC50 at PI3 kinase alpha is < 1000 nM.

`Nc1ncc(-c2cc(Cl)nc(N3CCOCC3)n2)cn1` [Compound 523]: the EC50 in test [2] was < 10000 nM. Besides, the IC50 on PI3 kinase alpha is < 1000 nM.

Take `CS(=O)(=O)N1CC[C@H](Oc2cc(-c3cnc(N)cc3C(F)(F)F)nc(N3CCOCC3)n2)C1` [Compound 524]: in test [2], the EC50 was < 10000 nM. The IC50 at PI3 kinase alpha was < 1000 nM.

`Nc1ncc(-c2cc(O[C@@H]3CCCN(C(=O)OC4CCCC4)C3)nc(N3CCOCC3)n2)c(N)n1` [Compound 526]: the EC50 in test [2] was < 10000 nM. The IC50 at PI3 kinase alpha was < 1000 nM.

As to `CC(C)OC(=O)N1CCC[C@@H](Oc2cc(-c3cnc(N)nc3N)nc(N3CCOCC3)n2)C1` [Compound 527], the EC50 in test [2] was < 10000 nM. Further, the IC50 on PI3 kinase alpha is < 1000 nM.

On to `Nc1ncc(-c2cc(O[C@H]3CCCN(C(=O)c4ccc(F)cc4)C3)nc(N3CCOCC3)n2)c(N)n1` [Compound 528], for which the EC50 in test [2] was < 10000 nM. On PI3 kinase alpha, the IC50 is < 1000 nM.

As for `CC(=O)N1CCC[C@H](Oc2cc(-c3cnc(N)nc3N)nc(N3CCOCC3)n2)C1` [Compound 529], the EC50 in test [2] is < 10000 nM. For the same molecule, at PI3 kinase alpha, the IC50 was < 1000 nM.

Consider `Nc1ncc(-c2cc(O[C@H]3CCOC3)nc(N3CCOCC3)n2)c(C(F)(F)F)n1` [Compound 530], for which the EC50 in test [2] is < 10000 nM. Besides, the IC50 on PI3 kinase alpha is < 1000 nM.

With `Nc1ncc(-c2cc(O[C@@H]3CCOC3)nc(N3CCOCC3)n2)c(C(F)(F)F)n1` [Compound 531], the EC50 in test [2] is < 10000 nM. The IC50 at PI3 kinase alpha is < 1000 nM.

Regarding `Nc1cc(C(F)(F)F)c(-c2cc(O[C@H]3CCN(C(=O)c4ccccc4)C3)nc(N3CCOCC3)n2)cn1` [Compound 532], the EC50 in test [2] is < 10000 nM. Further, at PI3 kinase alpha, the IC50 is < 1000 nM.

As for `CC(C)OC(=O)N1CC[C@H](Oc2cc(-c3cnc(N)cc3C(F)(F)F)nc(N3CCOCC3)n2)C1` [Compound 534], the EC50 in test [2] is < 10000 nM. Moreover, at PI3 kinase alpha, the IC50 was < 1000 nM.

Regarding `COC(=O)N1CC[C@@H](Oc2cc(-c3cnc(N)cc3C(F)(F)F)nc(N3CCOCC3)n2)C1` [Compound 539], the EC50 in test [2] is < 10000 nM. Besides, at PI3 kinase alpha, the IC50 was < 1000 nM.

Take `CS(=O)(=O)N1CC[C@@H](Oc2cc(-c3cnc(N)cc3C(F)(F)F)nc(N3CCOCC3)n2)C1` [Compound 540]: the EC50 in test [2] was < 10000 nM. Also, at PI3 kinase alpha, the IC50 is < 1000 nM.

Turning to `Nc1ncc(-c2cc(CNC(=O)OC3CCOC3)nc(N3CCOCC3)n2)c(N)n1` (stereo not shown) [Compound 541], the EC50 in test [2] was < 25000 nM. Besides, the IC50 on PI3 kinase alpha is < 1000 nM.

For the molecule `Nc1cc(C(F)(F)F)c(-c2cc(-c3ccccc3S(N)(=O)=O)nc(N3CCOCC3)n2)cn1` [Compound 543], the EC50 in test [2] is < 10000 nM. In addition, the IC50 at PI3 kinase alpha is < 1000 nM.

For `CC(C)(C)NS(=O)(=O)c1ccccc1-c1cc(-c2cnc(N)cc2C(F)(F)F)nc(N2CCOCC2)n1` [Compound 544], in test [2], the EC50 is < 25000 nM. The IC50 on PI3 kinase alpha was < 1000 nM.

Take `Nc1ncc(-c2cc(N3CCOc4ccccc43)nc(N3CCOCC3)n2)c(C(F)(F)F)n1` [Compound 546]: the EC50 in test [2] was < 10000 nM. Besides, the half-inhibitory concentration (IC50) on PI3 kinase alpha is < 1000 nM.

As for `Cc1c(-c2cnc(N)nc2)nc(N2CCOCC2)nc1-c1cccc(S(C)(=O)=O)c1` [Compound 548], the EC50 in test [2] is < 10000 nM. In addition, the IC50 at PI3 kinase alpha is < 1000 nM.

Regarding `Cc1c(-c2ccc(S(C)(=O)=O)cc2)nc(N2CCOCC2)nc1-c1cnc(N)nc1` [Compound 549], in test [2], the EC50 is < 10000 nM. The IC50 on PI3 kinase alpha was < 1000 nM.

In the case of `Nc1ccc(-c2cc(N3CCOCC3)nc(N3CCOCC3)n2)c(=O)[nH]1` [Compound 551], the EC50 in test [2] is < 10000 nM. In addition, the half-inhibitory concentration (IC50) at PI3 kinase alpha is < 1000 nM.

In the case of `Nc1cc(C(F)(F)F)c(-c2cc(Nc3nc(-c4ccccc4)cs3)nc(N3CCOCC3)n2)cn1` [Compound 554], in test [2], the EC50 was < 10000 nM. For the same molecule, the IC50 at PI3 kinase alpha was < 1000 nM.
